One data set concerns cell membranes. As to the kind of experiment: Cell permeation of donor fluorophore.
Another data set deals with holo carbonic anhydrase (Homo sapiens, UniProt P00918). Conditions: read-out: Kd of binding to holoprotein; cited from earlier work.

Our source for the cell permeability and Kd values is patent US7491545B2, “Excitation ratiometric fluoroscent biosensor for zinc ion at picomolar levels” (priority 2002, dated 2009).

SMILES strings stand for the structures. Entries after “also recorded” stand apart in the source; their conditions may differ.

For `CN(C)c1ccc(-c2cnc(-c3ccc(S(N)(=O)=O)cc3)o2)cc1` [Dapoxyl sulfonamide], the cell permeability result in the data set with cell membranes is recorded as “readily penetrates cell membranes; also recorded: rapidly cell-permeant”. The Kd at holo carbonic anhydrase was 200 nM.

As usually defined, the Kd is the free concentration of one partner at which half of the binding sites on the other are occupied at equilibrium, for simple one-to-one binding.
